Reference: PubChem BioAssay (NCI)
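48-hour exposure; five concentrations; linearly interpolated endpoints. GI50 = concentration required for 50% inhibition of growth. TGI denotes the concentration required for complete inhibition of growth.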

Assays:
Test in all cases: growth of human tumour cells (NCI), 48 h
[1] = tested on: EKVX NSCLC
[2] = tested on: NCI-H23 lung
[3] = tested on: SK-MEL-2 melanoma
[4] = tested on: SN12C renal
[5] = tested on: K-562 leukemia
[6] = tested on: A549 NSCLC
[7] = tested on: NCI-H460 lung
[8] = tested on: CAKI-1 renal
[9] = tested on: CCRF-CEM leukemia

Compound	TGI [1]	TGI [2]	TGI [3]	TGI [4]	TGI [5]	TGI [6]	TGI [7]	TGI [8]	TGI [9]	GI50 [1]	GI50 [2]	GI50 [3]	GI50 [4]	GI50 [9]	GI50 [5]	GI50 [6]	GI50 [7]	GI50 [8]
CCOC(=O)[C@H]1Nc2ccc(C)cc2C2c3ccccc3CC21 (stereo partly specified)	> 100 µM	> 100 µM	> 100 µM	> 100 µM	> 100 µM	> 100 µM	> 100 µM	> 100 µM										
N#Cc1cnsc1	> 100 µM	> 100 µM	> 100 µM	> 100 µM	> 100 µM	> 100 µM	> 100 µM	> 100 µM	> 100 µM									
O=C(/C=C/c1ccccc1Cl)c1ccccc1Cl	44.4 µM	52.9 µM		41.4 µM	47.7 µM	61.5 µM	36 µM	38.1 µM	44.9 µM									
COC(=O)CSc1n[nH]c(-c2ccc(O)c([N+](=O)[O-])c2)n1	> 100 µM	> 100 µM	> 100 µM	> 100 µM	> 100 µM	> 100 µM	> 100 µM	> 100 µM	> 100 µM									
CCN(CC)C(=O)C/C(C)=N/NC(=O)c1ccncc1	> 100 µM	> 100 µM	> 100 µM		> 100 µM	> 100 µM	> 100 µM		> 100 µM									
COC(=O)C(=O)C(C(=O)C(=O)Nc1ccc(C)cc1C)c1nc2ccccc2[nH]c1=O (stereo unspecified)	> 100 µM	> 100 µM	> 100 µM	> 100 µM	> 100 µM	> 100 µM	> 100 µM	68.9 µM	> 100 µM									
Cc1c2c(nn1-c1ccc(S(=O)(=O)/N=C3\SCC(=O)N3C(=O)c3ccccc3)cc1)-c1ccccc1CC2	90.7 µM	73.2 µM	> 100 µM	45.8 µM	> 100 µM	> 100 µM	> 100 µM	65.9 µM	49 µM	40.5 µM	27.7 µM	> 100 µM	19.2 µM	21 µM	79.2 µM	> 100 µM	47.5 µM	26.6 µM
CCCCn1c(-c2ccc(C(=O)O/N=C(\N)c3ccc(OC)cc3)cc2)nc(-c2ccccc2)c1-c1ccccc1			8.36 µM	4.46 µM		3.75 µM	3.87 µM	2.71 µM	2.76 µM			2.75 µM	1.84 µM	0.556 µM		1.21 µM	1.84 µM	1.29 µM
COc1ccc(C(=O)O)c(Cc2cccc3ccccc23)c1	> 100 µM	> 100 µM	> 100 µM	> 100 µM	> 100 µM	> 100 µM	> 100 µM	> 100 µM	> 100 µM									
C#CC[C@]12CC(=O)CC[C@H]1CC(=O)C2			> 100 µM	> 100 µM	> 100 µM	> 100 µM	> 100 µM	> 100 µM	> 100 µM									
CC(=O)SCCC1c2[nH]c3ccccc3c2CCN1O (stereo unspecified)	> 100 µM	> 100 µM	> 100 µM	> 100 µM	> 100 µM	> 100 µM	> 100 µM	> 100 µM	> 100 µM									
O=C(NC1CCCCCC1)C1C(=O)N(C2CCCCCC2)C(=O)/C1=N\O (stereo unspecified)	> 100 µM	93.1 µM	40.3 µM	> 100 µM	> 100 µM	> 100 µM	> 100 µM	> 100 µM	87.2 µM									
O=C(CC(=O)N1N=C(c2ccccc2)C(N=Nc2ccc(Cl)cc2)C1=O)Nc1ccccc1Cl (stereo unspecified)	> 100 µM	97 µM	88.6 µM	> 100 µM	> 100 µM	> 100 µM	> 100 µM	85.1 µM										
Cc1ccc(C(=O)/C=C/c2ccccc2O)c(C)c1	> 100 µM	> 100 µM	> 100 µM	> 100 µM	> 100 µM	> 100 µM	> 100 µM	> 100 µM	> 100 µM									
CCc1cccc(C)c1NC(C)=O	> 100 µM	> 100 µM	> 100 µM		> 100 µM	> 100 µM	> 100 µM	> 100 µM	> 100 µM									
Nc1c(-c2ccc(Br)cc2)[n+]([O-])c2ccccc2[n+]1[O-]	> 100 µM	> 100 µM	> 100 µM	> 100 µM	> 100 µM	> 100 µM	> 100 µM	> 100 µM										
COC(=O)C1=C(c2ccc3c(c2)OCO3)O[C@H](c2ccc3c(c2)OCO3)[C@H]1COC(C)=O	> 100 µM	> 100 µM	> 100 µM	> 100 µM	> 100 µM	> 100 µM	> 100 µM	> 100 µM	> 100 µM									

Compound	TGI [1]	TGI [2]	TGI [3]	TGI [4]	TGI [5]	TGI [6]	TGI [7]	TGI [8]	TGI [9]	GI50 [1]	GI50 [2]	GI50 [3]	GI50 [4]	GI50 [9]	GI50 [5]	GI50 [6]	GI50 [7]	GI50 [8]
NC1C2(CCCCCC2)NC(=O)C12CCCCCC2 (stereo unspecified)	> 100 µM	> 100 µM	> 100 µM	> 100 µM	> 100 µM	> 100 µM	> 100 µM	> 100 µM	> 100 µM									
NCCCNCCSSCCCCS(=O)O	> 100 µM	43.5 µM		> 100 µM	> 100 µM	> 100 µM	> 100 µM	> 100 µM										
Cc1cc(NS(=O)(=O)c2ccc(NC(=O)c3cccc4c(=O)c5ccccc5[nH]c34)cc2)no1	> 100 µM	> 100 µM	> 100 µM	> 100 µM	> 100 µM	> 100 µM	> 100 µM	> 100 µM	94.2 µM									
N#CCCN(c1ccc(/C=C2\N=C(c3ccc(Cl)cc3)OC2=O)cc1)S(=O)(=O)c1ccccc1	> 100 µM	> 100 µM	> 100 µM	> 100 µM	> 100 µM	> 100 µM	> 100 µM	> 100 µM										
COc1cc(Cc2cc(OC)c(OC)c(OC)c2)ccc1O	> 100 µM	> 100 µM	64.5 µM	> 100 µM	> 100 µM	> 100 µM		> 100 µM	> 100 µM									
Cc1ccc(NC(=O)C2C(=O)N(c3ccc(C)c(C)c3)C(=O)/C2=N/O)cc1C (stereo unspecified)	> 100 µM	> 100 µM	> 100 µM	> 100 µM	> 100 µM	> 100 µM	> 100 µM	> 100 µM	> 100 µM									
Cc1ccc(N=NC(C(=O)c2ccccc2)C(=O)c2ccccc2)cc1	> 100 µM	63.2 µM	55.4 µM	55.2 µM	88.2 µM	> 100 µM		85 µM	69.4 µM									
COC(=O)c1cc2c(c(C(=O)OC)c1O)C(=O)C=CC2=O	> 41.4 µM	> 31.6 µM	> 100 µM	> 56.3 µM	> 22.7 µM	> 58.3 µM	> 74.3 µM	> 100 µM	4.31 µM	> 9.1 µM	> 9.1 µM	> 100 µM	> 9.1 µM			> 9.1 µM	> 9.1 µM	> 100 µM
CC#CC(=O)Nc1ccccc1CC(c1c[nH]c2ccccc12)c1c[nH]c2ccccc12	54.7 µM	38.8 µM	34.4 µM	30 µM	39.2 µM	57.5 µM		58.9 µM	39.4 µM									
CN(C)C(=S)/N=c1\ss/c(=N\C(=S)N(C)C)n1-c1ccc2c(c1)OCO2	> 100 µM	> 100 µM	> 100 µM	> 100 µM	> 100 µM	> 100 µM		> 100 µM										
CCOC(=O)NC(=O)c1cn(CCCOC(=O)NCCCCCCNC(=O)OCCCn2c(=O)c(C(=O)NC(=O)OCC)cn(C)c2=O)c(=O)n(C)c1=O		> 100 µM	> 100 µM	> 100 µM	> 100 µM	> 100 µM	> 100 µM	> 100 µM	> 100 µM									
O=C1C2=C(CC3C(C2)C3(Br)Br)C(=O)C2=C1CC1C(C2)C1(Br)Br (stereo unspecified)	> 100 µM	> 100 µM	> 100 µM	> 100 µM	> 100 µM	> 100 µM	> 100 µM	> 100 µM	> 100 µM									
CCC(C)(O)c1cn(-c2cccc(S(=O)(=O)O)c2)nn1 (stereo unspecified)	> 100 µM	> 100 µM	> 100 µM	> 100 µM	> 100 µM	> 100 µM	> 100 µM	> 100 µM	> 100 µM									
CC(=O)c1ccc(NC(=O)/C(Cc2ccccn2)=N/NC(=O)C[N+](C)(C)C)cc1	> 100 µM	> 100 µM	> 100 µM	> 100 µM	> 100 µM	> 100 µM	> 100 µM	> 100 µM	> 100 µM									
CC(C)=CC(=O)N1CCN(C(=O)C=C(C)C)CC1	> 100 µM	> 100 µM		> 100 µM	> 100 µM	> 100 µM	> 100 µM	> 100 µM	> 100 µM									
CC(=O)NC(CCCN)C(=O)NCc1ccccc1 (stereo unspecified)	> 100 µM	> 100 µM	> 100 µM	> 100 µM	> 100 µM	> 100 µM	> 100 µM	> 100 µM	> 100 µM									
COc1ccc(OC)c(/C=C/NC=O)c1	> 100 µM	> 100 µM	> 100 µM	> 100 µM	> 100 µM	> 100 µM	> 100 µM	> 100 µM	> 100 µM									
